Experimental findings from patent publication US20220340566A1, “BENZYL AMINE-CONTAINING 5,6-HETEROAROMATIC COMPOUNDS USEFUL AGAINST MYCOBACTERIAL INFECTION” (priority 2019, published 2022) are described below.

Data set [1] can be described thus: Metabolic stability test in pooled human liver microsomes. The following applies: human liver microsomes 0.5 mg protein/mL, 1 mmol/L NADPH, 37° C., 30 minutes. It counts as in vitro ADME. The protocol: Using a commercially available pooled human liver microsomes, a compound of the present invention was reacted for a constant time, a remaining rate was calculated by comparing a reacted sample and an unreacted sample, thereby, a degree of metabolism in liver was assessed.
A reaction was performed (oxidative reaction) at 37° C. for 0 minute or 30 minutes in the presence of 1 mmol/L NADPH in 0.2 mL of a buffer (50 mmol/L Tris-HCl pH 7.4, 150 mmol/L potassium chloride, 10 mmol/L magnesium chloride) containing 0.5 mg protein/mL of human liver microsomes. After the reaction, 50 μL of the reaction solution was added to 100 μL of a methanol/acetonitrile=1/1 (v/v), mixed and centrifuged at 3000 rpm for 15 minutes. The compound of the present invention in the supernatant was quantified by LC/MS/MS or solid phase extraction (SPE)/MS, and a remaining amount of the compound of the present invention after the reaction was calculated, letting a compound amount at 0 minute reaction time to be 100%.
For orientation: Liver microsomes are a subcellular fraction often used to study metabolism.

The subject of data set [2] is Mycobacterium avium ATCC700898. Nature of the data set: Determination of IC85 against M. avium (resazurin fluorescence). It counts as cell-based. Conditions: Mycobacterium avium, ATCC700898, M. avium ATCC700898, CAMHB medium, 37° C., 3 days incubation then resazurin, fluorescence one day later; read-out: IC85. A general note: Alamar Blue is a resazurin reagent that responds to reducing activity.

With `Cc1nc2ccc(Cl)cn2c1C(=O)NCc1ccc(N2C[C@H](C)N(c3ccc(OC(F)(F)F)cc3)C[C@H]2C)c(F)c1` [Compound I-1-40], in data set [1], the “MS_h_% (remaining amount of compound after reaction, 0 minute = 100%)” value came to 89%. In addition, the IC85 in data set [2] was 22 nM.
On the same counts, the results for `Cc1ccn2c(C(=O)NCc3ccc(N4C[C@H](C)N(c5ccc(OC(F)(F)F)cc5)C[C@H]4C)c(F)c3)c(C)nc2c1` [Compound I-1-41] are 86% and 180 nM.
On the same counts, the results for `CCc1nc2ccc(Cl)cn2c1C(=O)NCc1ccc(N2CCN(c3ccc(OC(F)(F)F)cc3)[C@@H](CC)C2)c(F)c1` [Compound I-1-42] are 59% and 9 nM.
The matching figures for `CCOc1ccc(N2CCN(c3ccc(CNC(=O)c4c(CC)nc5ccc(Cl)cn45)cc3F)C[C@@H]2C)cc1` [Compound I-1-44]: 69% and 11 nM.
Regarding `CCc1nc2ccc(Cl)cn2c1C(=O)NCc1ccc(N2CCN(c3ccc(OCC(F)(F)F)nc3)[C@@H](C)C2)c(F)c1` [Compound I-1-45], the “MS_h_% (remaining amount of compound after reaction, 0 minute = 100%)” value in data set [1] is 64%. In data set [2], the IC85 worked out at 11 nM.
On the same counts, the results for `Cc1nc2cc(F)ccn2c1C(=O)NCc1ccc(N2CCN(c3ccc(OC(F)(F)F)cc3)[C@@H](C)C2)c(F)c1` [Compound I-1-46] are 96% and 2.6 nM.
The matching figures for `Cc1cc2nc(C)c(C(=O)NCc3ccc(N4CCN(c5ccc(OC(F)(F)F)cc5)[C@@H](C)C4)c(F)c3)n2cc1F` [Compound I-1-47]: 85% and 110 nM.
On to `CCc1nc2cc(C)c(Cl)cn2c1C(=O)NCc1ccc(N2CCN(c3ccc(OC(F)(F)F)cc3)[C@@H](C)C2)c(F)c1` [Compound I-1-48], for which the “MS_h_% (remaining amount of compound after reaction, 0 minute = 100%)” value in data set [1] was determined as 69%. Also, in data set [2], the IC85 came out at 35 nM.
For `CCc1nc2cc(C)c(F)cn2c1C(=O)NCc1ccc(N2CCN(c3ccc(OC(F)(F)F)cc3)[C@@H](C)C2)c(F)c1` [Compound I-1-49], the “MS_h_% (remaining amount of compound after reaction, 0 minute = 100%)” value in data set [1] was 59%. In data set [2], the IC85 came out at 68 nM.
The matching figures for `Cc1nc2ccc(C#N)cn2c1C(=O)NCc1ccc(N2CCN(c3ccc(OC(F)(F)F)cc3)[C@@H](C)C2)c(F)c1.Cl` [Compound I-1-50]: 94% and 500 nM.
The matching figures for `Cc1nc2cc(Cl)ccn2c1C(=O)NCc1ccc(N2CCN(c3ccc(OC(F)(F)F)cc3)[C@@H](C)C2)c(F)c1.Cl` [Compound I-1-51]: 90% and 110 nM.
Consider `Cc1nc2ccccn2c1C(=O)NCc1ccc(N2CCN(c3ccc(OC(F)(F)F)cc3)[C@@H](C)C2)c(F)c1.Cl` [Compound I-1-52], for which the “MS_h_% (remaining amount of compound after reaction, 0 minute = 100%)” value in data set [1] was found to be 84%. Also, the IC85 in data set [2] is 5.4 nM.
On the same counts, the results for `CCOc1ccc(N2CCN(c3ccc(CNC(=O)c4c(CC)nc5ccc(Cl)cn45)cc3F)C[C@@H]2C)cc1F.Cl` [Compound I-1-53] are 65% and 37 nM.
In the case of `CCc1nc2ccc(Cl)cn2c1C(=O)NCc1ccc(N2CCN(c3ccc(OCC4CC4)cc3)[C@@H](C)C2)c(F)c1.Cl` [Compound I-1-54], in data set [1], the “MS_h_% (remaining amount of compound after reaction, 0 minute = 100%)” value worked out at 79%. In data set [2], the IC85 is 34 nM.
On the same counts, the results for `CCOc1ccc(N2CCN(c3ccc(CNC(=O)c4c(CC)nc5ccc(Cl)cn45)cc3F)C[C@@H]2C)cc1OC.Cl` [Compound I-1-55] are 84% and 690 nM.
For `CCc1nc2ccc(Cl)cn2c1C(=O)NCc1ccc(N2CCN(c3ccc(OCC(C)(C)C)cc3)[C@@H](C)C2)c(F)c1.Cl` [Compound I-1-56], in data set [1], the “MS_h_% (remaining amount of compound after reaction, 0 minute = 100%)” value turned out to be 60%. Moreover, the IC85 in data set [2] was 22 nM.
As for `Cc1ccc2nc(Cl)c(C(=O)NCc3ccc(N4CCN(c5ccc(OC(F)(F)F)cc5)[C@@H](C)C4)c(F)c3)n2c1.Cl` [Compound I-1-57], in data set [1], the “MS_h_% (remaining amount of compound after reaction, 0 minute = 100%)” value is 84%. For the same compound, the IC85 in data set [2] stood at 3.6 nM.
As to `Cc1ccn2c(C(=O)NCc3ccc(N4CCC(c5ccc(OC(F)(F)F)cc5)[C@@H](C)C4)c(F)c3)c(Cl)nc2c1.Cl` (stereo partly drawn) [Compound I-1-58], the “MS_h_% (remaining amount of compound after reaction, 0 minute = 100%)” value in data set [1] amounted to 89%. The IC85 in data set [2] came to 77 nM.
The matching figures for `C[C@H]1CN(c2ccc(CNC(=O)c3c(Cl)nc4ccccn34)cc2F)CCN1c1ccc(OC(F)(F)F)cc1.Cl` [Compound I-1-59]: 87% and 11 nM.
On the same counts, the results for `Cc1nc2cc(Cl)ccn2c1C(=O)NCc1ccc(N2CC=C(c3ccc(OC(F)(F)F)cc3)CC2)c(F)c1.Cl` [Compound I-1-60] are 72% and 11 nM.
As to `Cc1ccn2c(C(=O)NCc3ccc(N4CC=C(c5ccc(OC(F)(F)F)cc5)CC4)c(F)c3)c(C)nc2c1.Cl` [Compound I-1-61], the “MS_h_% (remaining amount of compound after reaction, 0 minute = 100%)” value in data set [1] amounted to 95%. In addition, in data set [2], the IC85 was found to be 200 nM.
`CCc1nc2ccc(Cl)cn2c1C(=O)NCc1ccc(N2CCC(c3ccc(OC(F)(F)F)cc3)CC2)c(F)c1.Cl` [Compound I-1-62]: the “MS_h_% (remaining amount of compound after reaction, 0 minute = 100%)” value in data set [1] is reported as 82%. Also, the IC85 in data set [2] was determined as 7.2 nM.
With `Cc1nc2ccc(Cl)cn2c1C(=O)NCc1ccc(N2CCC(c3ccc(OC(F)(F)F)cc3)CC2)c(F)c1.Cl` [Compound I-1-63], in data set [1], the “MS_h_% (remaining amount of compound after reaction, 0 minute = 100%)” value turned out to be 95%. In addition, the IC85 in data set [2] came to 12 nM.
The matching figures for `Cc1nc2ccc(F)cn2c1C(=O)NCc1ccc(N2CCC(c3ccc(OC(F)(F)F)cc3)CC2)c(F)c1.Cl` [Compound I-1-64]: 94% and 79 nM.
Take `Cc1ccn2c(C(=O)NCc3ccc(N4CCC(c5ccc(OC(F)(F)F)cc5)CC4)c(F)c3)c(C)nc2c1.Cl` [Compound I-1-65]: the “MS_h_% (remaining amount of compound after reaction, 0 minute = 100%)” value in data set [1] was found to be 96%. The IC85 in data set [2] was found to be 120 nM.
For `CCc1nc2ccc(Cl)cn2c1C(=O)NCc1cc(F)c(N2CCC(c3ccc(OC(F)(F)F)cc3)CC2)c(F)c1.Cl` [Compound I-1-66], the “MS_h_% (remaining amount of compound after reaction, 0 minute = 100%)” value in data set [1] is on record as 83%. The IC85 in data set [2] was 11 nM.
The matching figures for `Cc1ccn2c(C(=O)NCc3cc(F)c(N4CCC(c5ccc(OC(F)(F)F)cc5)CC4)c(F)c3)c(C)nc2c1.Cl` [Compound I-1-67]: 93% and 68 nM.
On the same counts, the results for `CCc1nc2cc(F)ccn2c1C(=O)NCc1ccc(N2CCC(c3ccc(OC(F)(F)F)cc3)CC2)c(F)c1.Cl` [Compound I-1-68] are 91% and 13 nM.
The matching figures for `Cc1nc2cc(Cl)ccn2c1C(=O)NCc1ccc(N2CCC(c3ccc(OC(F)(F)F)cc3)CC2)c(F)c1.Cl` [Compound I-1-69]: 89% and 510 nM.
Regarding `Cc1ccn2nc(C)c(C(=O)NCc3ccc(N4CCN(c5ccc(OC(F)(F)F)cc5)[C@@H](C)C4)c(F)c3)c2c1.Cl` [Compound I-1-70], in data set [1], the “MS_h_% (remaining amount of compound after reaction, 0 minute = 100%)” value is 84%. Further, the IC85 in data set [2] was determined as 25 nM.
